According to patent US8211463B2, “Use of glycolipids as adjuvants” (Helmholtz-Zentrum Fuer Infektionsforschung GmbH, priority 2006, dated 2012):
“Also recorded” adds a separate entry of the source.

What was measured:
[1] = Tolerability of co-administered glycolipids: body weight and behaviour tested daily; assay type: in vivo
Protocol: The body weight and the behaviour of the animals were tested daily. The Balb/c mice were immunized by the mucosal (i.n.) or parenteral (s.c.) route with β-Gal alone or together with glycolipids 1, 5 and 6 three times at 2-wk intervals (day 1, 14 and 28). 10 days after the final immunization (day 38), the immunized mice were sacrificed.
Experimental protocol: six-eight weeks-old female BALB/c (H-2d) mice were purchased from Harlan Winkelmann GmbH (Borchen, Germany) and treated in accordance with local and European Community guidelines. Groups of 5 mice each were immunized on day 01, 14 and 28 with 30 μg of β-Gal (Boehringer, Mannheim, Germany), alone or with 10 μg of glycolipids 1, 5, or 6, respectively, see FIG. 2. For intranasal (i.n.) immunization, 10 μl were applied to each naris, whereas for the s.c. injection β-Gal with or without glycolipids 1, 5 or 6, respectively, was resuspended in a volume of 50 μl PBS per animal. Serum samples were collected at day 38 after immunization and stored at −20° C. prior to determination of β-Gal-specific antibodies. 96-well Nunc-Immuno MaxiSorp assay plates (Nunc, Roskilde, Denmark) were coated with 100 μl of β-Gal (Boehringer, Mannheim, Germany) at 5 μg/ml in 0.05 M carbonate buffer (pH 8.2) per well. Serial two-fold dilutions of sera or lavages in PBS with 1% BSA and 0.05% Tween 20 were added (100 μl/well), and plates incubated for 16 h at 37° C. After washing, biotinylated γ-chain-specific goat anti-mouse IgG (Sigma Chemie, Deisenhofen, Germany) was added, and plates were incubated for an additional 1 h at 37° C. After four washes, 100 μl of peroxidase-conjugated streptavidin (Pharmingen) was added to cells and plates incubated at 37° C. for 30 min. After four washes, reactions were developed with ABTS in 0.1 M citrate-phosphate buffer (pH 4.35) containing 0.01% H2O2.

[2] = test system: β-Gal-specific mucosal S-IgA; experiment: β-Gal-specific secretory IgA in bronchial alveolar and vaginal lavages after i.n. immunisation; assay type: in vivo, Balb/c mice; settings: for expression of β-Gal-specific S-IgA titers (lavage not named, FIG. 6): 20 up to 30 μg glycolipid, probably vaginal lavage
Protocol: Co-administration of β-Gal with 10 μg glycolipids 1, 5 and 6 induced β-Gal-specific mucosal S-IgA responses in Balb/c mice. Balb/c mice were immunized by the i.n. or s.c. route with β-Gal alone or together with glycolipids 1, 5 and 6 three times at 2-wk intervals. 10 days after the final immunization, the immunized mice were sacrificed. β-Gal-specific S-IgA titers were determined in vaginal lavage (VL) and Bronchial alveolar lavage (BAL) of mice immunized with β-Gal co-administered with glycolipids 1, 5 and 6 by the intranasal route. […] Bars represent mean Ab titer or amount±SE in each group. Each group consists of five mice. Data are representative of three separate experiments.
Co-administration of β-Gal with 20 up to 30 μg glycolipids 5 and 6 induced β-Gal-specific mucosal S-IgA responses in Balb/c mice. Balb/c mice were immunized by the i.n. or s.c. route with β-Gal alone or together with glycolipids 5 and 6 three times at 2-wk intervals. 10 days after the final immunization, the immunized mice were sacrificed. β-Gal-specific S-IgA titers were determined in vaginal lavage (VL) and Bronchial alveolar lavage (BAL) of mice immunized with β-Gal co-administered with glycolipids 5 and 6 by the intranasal route.
Experimental protocol: at day 38, mice were sacrificed and the final sampling was performed. Vaginal and lung lavages were obtained by flushing the organs with 1 ml of PBS supplemented with 50 mM EDTA, 0.1% BSA, and 10 mM PMSF. Lavages were then centrifuged to remove debris (10 min at 3000×g), and supernatant fluids were stored at −20° C. To determine the concentration of total IgA present in the lung and vaginal lavages, serial dilutions of the corresponding samples were incubated in microtiter plates that were previously coated with goat anti-mouse IgA (Sigma Chemie), as capture antibodies (100 μl/well). Serial dilutions of purified mouse IgA (Sigma Chemie) were used to generate a standard curve.

[3] = test system: β-Gal-specific IgG isotypes; experiment: IgG isotype ELISA (IgG, IgG1, IgG2a) in sera of vaccinated mice; assay type: in vivo, Balb/c mice; settings: for enhancement of β-Galactosidase-specific IgG secretion vs β-Gal alone / increase of β-Gal-specific IgG1 secretion vs β-Gal alone / increase of β-Gal-specific IgG2a secretion vs β-Gal alone / increase of β-Gal specific IgG1 secretion vs β-Gal alone / secretion of IgG2a isotype vs β-Gal alone: 10 μg glycolipid; for increase of β-Gal specific IgG1 secretion vs β-Gal alone / secretion of IgG2a isotype vs β-Gal alone: s.c. (parenteral); for enhancement of β-Galactosidase-specific IgG2a isotype vs β-Gal alone: 20 or 30 μg glycolipid, dose-dependent
Protocol: Co-administration of β-Gal with 10 μg glycolipids 1, 5 and 6 induced β-Gal-specific systemic IgG responses in Balb/c mice. Balb/c mice were immunized by the i.n. or s.c. route with β-Gal alone or together with glycolipids 1, 5 and 6 three times at 2-wk intervals. 10 days after the final immunization, the immunized mice were sacrificed. The levels of β-Gal-specific titers of IgG isotypes were determined in Sera of mice immunized by the i.n. (A) and s.c. (B) route. […] Bars represent mean Ab titer or amount±SE in each group. Each group consists of five mice. Data are representative of three separate experiments.
Co-administration of β-Gal with 20 or 30 μg glycolipids 5 and 6, respectively, induced β-Gal-specific systemic IgG responses in Balb/c mice. Balb/c mice were immunized by the i.n. or s.c. route with β-Gal alone or together with glycolipids 5 and 6 three times at 2-wk intervals. 10 days after the final immunization, the immunized mice were sacrificed. The levels of β-Gal-specific titers of IgG isotypes were determined in Sera of mice immunized by the i.n. (A) and s.c. (B) route. […] The parenteral administration of with β-Gal co-administered with 20 μg glycolipids 5 and 6 enhanced the β-Galactosidase-specific IgG1 isotype titer (>250000) in comparison to animals which were immunized with β-Gal alone. Bars represent mean Ab titer or amount±SE in each group. Each group consists of five mice. Data are representative of two separate experiments.
Isotyp ELISA: 96-well Nunc-Immuno MaxiSorp assay plates (Nunc, Roskilde, Denmark) were coated with 100 μl of β-Gal (Boehringer, Mannheim, Germany) at 5 μg/ml in 0.05 M carbonate buffer (pH 8.2) per well. Serial two-fold dilutions of sera or lavages in PBS with 1% BSA and 0.05% Tween 20 were added (100 μl/well), and plates incubated for 2 h at 37° C. After washing, biotin-conjugated rat anti-mouse IgG1 or IgG2a (Pharmingen, Hamburg, Germany) were added to determine IgG subclasses. Plates were incubated for an additional 1 h at 37° C. After four washes, 100 μl of peroxidase-conjugated streptavidin (Pharmingen) was added to cells and plates incubated at 37° C. for 30 min. After four washes, reactions were developed with ABTS in 0.1 M citrate-phosphate buffer (pH 4.35) containing 0.01% H2O2. To determine the concentration of IgG subclasses in serum, standard curves were obtained by coating the wells with an isotype-specific goat anti-mouse IgG, and then by incubating with purified mouse IgG1 or IgG2a antibodies (Dianova, Hamburg, Germany).

[4] = 10 μg glycolipid + 30 μg β-Gal, day 38
[5] = i.n. co-administration with β-Gal (FIG. 9 and FIG. 10)
[6] = s.c. co-administration with β-Gal (FIG. 9 and FIG. 10)
[7] = co-administered with 30 μg β-Gal, i.n. and s.c., day 1, 14 and 28
[8] = 20 up to 30 μg glycolipid + 30 μg β-Gal, day 38

## CCCCCCCC/C=C\CCCCCCCCOCC(COCCCCCCCC/C=C\CCCCCCCC)O[C@@H]1O[C@H](CO)[C@@H](O[C@H]2O[C@H](CO)[C@@H](O)[C@H](O)[C@H]2O)[C@H](O)[C@H]1O (relative stereo) [glycolipid 1, 1,3-Di-O[cis-9-octadecenyl]-2-O-[4′-O-(α-D-glycopyranosyl)-β-D-glycopyranosyl]-sn-glycerol]
[1]; mouse, in vivo, sc
  toxic side effects (body weight and behaviour): no toxic side effects; also recorded: no toxic side effects or changes in their behaviour
[2]; [4]
  β-Galactosidase-specific sIgA titer in bronchial alveolar lavage (BAL): below the detection level
[3]; [5]
  IgG1 / IgG2a isotype pattern (Th2 / Th1): dominant Th2 pattern
[3]; i.n.
  enhancement of β-Galactosidase-specific IgG secretion vs β-Gal alone: no effect
  increase of β-Gal-specific IgG1 secretion vs β-Gal alone: no effect
  increase of β-Gal-specific IgG2a secretion vs β-Gal alone: no effect
[3]
  increase of β-Gal specific IgG1 secretion vs β-Gal alone: 2.5 fold
  secretion of IgG2a isotype vs β-Gal alone: no enhanced secretion
[3]; [6]
  IgG1 / IgG2a isotype pattern (Th2 / Th1): dominant Th2 pattern

## CCCCCCCCCCCCCCOCC(COCCCCCCCCCCCCCC)O[C@@H]1O[C@H](CO)[C@@H](O[C@H]2O[C@H](CO)[C@@H](O)[C@H](O)[C@H]2O)[C@H](O)[C@H]1O [glycolipid 5, 1,3-Di-O-tetradecyl-2-O-[4′-O-(α-D-glucopyranosyl)-β-D-glucopyranosyl]-sn-glycerol]
[1]; [7]
  toxic side effects (body weight and behaviour): no toxic side effects; also recorded: no toxic side effects or changes in their behaviour
[2]; [4]
  β-Galactosidase-specific sIgA in vaginal lavages: enhanced
  β-Galactosidase-specific sIgA titer in bronchial alveolar lavage (BAL): > 1/130 and significant increase
[2]; [8]
  β-Galactosidase-specific sIgA titer in bronchial alveolar lavage (BAL): > 1/170 and significant increase
[2]
  expression of β-Gal-specific S-IgA titers (lavage not named, FIG. 6): comparable with titer of the control groups
[3]; [5]
  IgG1 / IgG2a isotype pattern (Th2 / Th1): dominant Th2 pattern
[3]; i.n.
  enhancement of β-Galactosidase-specific IgG secretion vs β-Gal alone: 29 fold
  increase of β-Gal-specific IgG1 secretion vs β-Gal alone: 50 fold
  increase of β-Gal-specific IgG2a secretion vs β-Gal alone: 6 fold
  enhancement of β-Galactosidase-specific IgG2a isotype vs β-Gal alone: 7 fold
[3]
  increase of β-Gal specific IgG1 secretion vs β-Gal alone: 2.2 fold
  secretion of IgG2a isotype vs β-Gal alone: no enhanced secretion
[3]; [6]
  IgG1 / IgG2a isotype pattern (Th2 / Th1): dominant Th2 pattern
[3]; s.c.
  enhancement of β-Galactosidase-specific IgG secretion vs β-Gal alone: 7 fold

## CCCCCCCCCCCCCCOCC(COCCCCCCCCCCCCCC)O[C@@H]1O[C@H](CO[C@H]2O[C@H](CO)[C@H](O)[C@H](O)[C@H]2O)[C@@H](O)[C@H](O)[C@H]1O [glycolipid 6, 1,3-di-O-tetradecyl-2-O-[6′-O-(α-D-galactopyranosyl)-β-D-glucopyranosyl]-sn-glycerol]
[1]; [7]
  toxic side effects (body weight and behaviour): no toxic side effects; also recorded: no toxic side effects or changes in their behaviour
[2]; [4]
  β-Galactosidase-specific sIgA titer in bronchial alveolar lavage (BAL): below the detection level
[2]; [8]
  β-Galactosidase-specific sIgA titer in bronchial alveolar lavage (BAL): comparable sIgA titers in BAL; also recorded: significant increase
[2]
  expression of β-Gal-specific S-IgA titers (lavage not named, FIG. 6): comparable with titer of the control groups
[3]; [5]
  IgG1 / IgG2a isotype pattern (Th2 / Th1): comparable expression of IgG1 and IgG2a isotypes
[3]; i.n.
  enhancement of β-Galactosidase-specific IgG secretion vs β-Gal alone: 8 fold
  increase of β-Gal-specific IgG1 secretion vs β-Gal alone: 24 fold
  increase of β-Gal-specific IgG2a secretion vs β-Gal alone: 1.8 fold
  enhancement of β-Galactosidase-specific IgG2a isotype vs β-Gal alone: 7 fold
[3]
  increase of β-Gal specific IgG1 secretion vs β-Gal alone: no effect
  secretion of IgG2a isotype vs β-Gal alone: no enhanced secretion
[3]; [6]
  IgG1 / IgG2a isotype pattern (Th2 / Th1): dominant Th2 response
